The record followed here is publication PMC5218480 (PLoS ONE, 2017).

This assay concerns MV-4-11 cells. Briefly: Gene expression microarray analysis (Affymetrix PrimeView) and GSEA. It is filed as cell-based, human. Also on record: RFU PODN (11730768_x_at) / Fold change /veh PODN (11730768_x_at) / RFU LINC00158 (11744669_a_at) / Fold change /veh LINC00158 (11744669_a_at) / RFU DUSP10 (11751237_a_at) / Fold change /veh DUSP10 (11751237_a_at) / RFU ID3 (11757404_x_at) / Fold change /veh ID3 (11757404_x_at) / RFU PLEKHG5 (11737974_s_at) / Fold change /veh PLEKHG5 (11737974_s_at) / RFU LRRC4B (11730491_at) / Fold change /veh LRRC4B (11730491_at) / RFU GIMAP4 (11747438_a_at) / Fold change /veh GIMAP4 (11747438_a_at) / RFU KRT8 (11758183_x_at) / Fold change /veh KRT8 (11758183_x_at) / RFU CNN1 (11734310_a_at) / Fold change /veh CNN1 (11734310_a_at) / RFU VPS37D (11726825_at) / Fold change /veh VPS37D (11726825_at) / RFU C10orf10 (11716522_x_at) / Fold change /veh C10orf10 (11716522_x_at) / RFU KIR2DL2 /// KIR2DL4 /// KIR2DL5A /// KIR2DL5B /// KIR2DS1 /// KIR2DS2 /// KIR2DS3 /// KIR2DS4 /// KIR3DL3 /// KIR3DL3 /// KIR3DS1 (11738374_at) / Fold change /veh KIR2DL2 /// KIR2DL4 /// KIR2DL5A /// KIR2DL5B /// KIR2DS1 /// KIR2DS2 /// KIR2DS3 /// KIR2DS4 /// KIR3DL3 /// KIR3DL3 /// KIR3DS1 (11738374_at) / RFU C1QL1 (11718748_at) / Fold change /veh C1QL1 (11718748_at) / RFU TMPRSS4 (11747572_a_at) / Fold change /veh TMPRSS4 (11747572_a_at) / RFU HAMP (11756126_x_at) / Fold change /veh HAMP (11756126_x_at) / RFU RNFT2 (11725882_a_at) / Fold change /veh RNFT2 (11725882_a_at) / RFU NR4A2 (11747474_a_at) / Fold change /veh NR4A2 (11747474_a_at) / RFU ABCC12 (11746883_a_at) / Fold change /veh ABCC12 (11746883_a_at) / RFU TMEM136 (11760407_x_at) / Fold change /veh TMEM136 (11760407_x_at) / RFU CLDN22 /// WWC2 (11732394_at) / Fold change /veh CLDN22 /// WWC2 (11732394_at) / RFU HLA-DPB1 (11760878_x_at) / Fold change /veh HLA-DPB1 (11760878_x_at) / RFU SPINT1 (11716480_a_at) / Fold change /veh SPINT1 (11716480_a_at) / RFU GAP43 (11754022_s_at) / Fold change /veh GAP43 (11754022_s_at) / RFU A4GNT (11735810_at) / Fold change /veh A4GNT (11735810_at) / RFU PRB3 (11715151_x_at) / Fold change /veh PRB3 (11715151_x_at) / RFU TUBB4B (11761932_at) / Fold change /veh TUBB4B (11761932_at) / RFU CAPN14 (11732068_a_at) / Fold change /veh CAPN14 (11732068_a_at) / RFU TMCC2 (11721928_a_at) / Fold change /veh TMCC2 (11721928_a_at) / RFU IRGQ (11745062_a_at) / Fold change /veh IRGQ (11745062_a_at) / RFU FAM174B (11720279_a_at) / Fold change /veh FAM174B (11720279_a_at) / RFU TMPRSS4 (11748680_a_at) / Fold change /veh TMPRSS4 (11748680_a_at) / RFU FAM212B (11763350_a_at) / Fold change /veh FAM212B (11763350_a_at) / RFU PLEKHG5 (11743358_a_at) / Fold change /veh PLEKHG5 (11743358_a_at) / RFU ZSCAN30 (11745921_a_at) / Fold change /veh ZSCAN30 (11745921_a_at) / RFU CMKLR1 (11741424_a_at) / Fold change /veh CMKLR1 (11741424_a_at) / RFU LOC101060620 /// MAPK8IP1 (11723275_at) / Fold change /veh LOC101060620 /// MAPK8IP1 (11723275_at) / RFU SPTSSB (11747773_x_at) / Fold change /veh SPTSSB (11747773_x_at) / RFU PRSS12 (11739890_at) / Fold change /veh PRSS12 (11739890_at) / RFU BIN1 (11741810_x_at) / Fold change /veh BIN1 (11741810_x_at) / RFU WNT11 (11732464_a_at) / Fold change /veh WNT11 (11732464_a_at) / RFU C10orf10 (11716521_a_at) / Fold change /veh C10orf10 (11716521_a_at) / RFU C5orf56 (11738089_at) / Fold change /veh C5orf56 (11738089_at) / RFU CYB561 (11721691_x_at) / Fold change /veh CYB561 (11721691_x_at) / RFU ANKRD19P (11752326_a_at) / Fold change /veh ANKRD19P (11752326_a_at) / RFU OR2T12 /// OR2T33 /// OR2T8 (11738714_s_at) / Fold change /veh OR2T12 /// OR2T33 /// OR2T8 (11738714_s_at) / RFU VCAN (11748164_a_at) / Fold change /veh VCAN (11748164_a_at) / RFU JSRP1 (11732532_at) / Fold change /veh JSRP1 (11732532_at) / RFU KRTAP10-11 (11738290_x_at) / Fold change /veh KRTAP10-11 (11738290_x_at) / RFU MYO3A (11730013_a_at) / Fold change /veh MYO3A (11730013_a_at) / RFU EBF3 (11725865_a_at) / Fold change /veh EBF3 (11725865_a_at) / RFU CAMK2N1 (11719241_x_at) / Fold change /veh CAMK2N1 (11719241_x_at) / RFU C5orf56 (11738088_a_at) / Fold change /veh C5orf56 (11738088_a_at) / RFU OLFML3 (11715873_a_at) / Fold change /veh OLFML3 (11715873_a_at) / RFU LOC100653217 /// NTM (11731650_a_at) / Fold change /veh LOC100653217 /// NTM (11731650_a_at) / RFU MAPK11 (11762145_a_at) / Fold change /veh MAPK11 (11762145_a_at) / RFU FIZ1 (11724087_x_at) / Fold change /veh FIZ1 (11724087_x_at) / RFU OASL (11726364_x_at) / Fold change /veh OASL (11726364_x_at) / RFU SOX15 (11748057_x_at) / Fold change /veh SOX15 (11748057_x_at) / RFU CD79A (11719716_a_at) / Fold change /veh CD79A (11719716_a_at) / RFU HIST1H1D (11736915_at) / Fold change /veh HIST1H1D (11736915_at) / RFU CASKIN2 (11723855_a_at) / Fold change /veh CASKIN2 (11723855_a_at) / RFU LOC730098 (11760151_x_at) / Fold change /veh LOC730098 (11760151_x_at) / RFU OR4N2 (11742367_at) / Fold change /veh OR4N2 (11742367_at) / RFU PRRT2 (11749266_a_at) / Fold change /veh PRRT2 (11749266_a_at) / RFU SNX32 (11753110_a_at) / Fold change /veh SNX32 (11753110_a_at) / RFU CDHR5 (11726645_a_at) / Fold change /veh CDHR5 (11726645_a_at) / RFU RCAN1 (11760418_a_at) / Fold change /veh RCAN1 (11760418_a_at) / RFU FAM167A (11723789_a_at) / Fold change /veh FAM167A (11723789_a_at) / RFU FAM26E (11764081_at) / Fold change /veh FAM26E (11764081_at) / RFU ISYNA1 (11749810_s_at) / Fold change /veh ISYNA1 (11749810_s_at) / RFU ACY1 (11761880_at) / Fold change /veh ACY1 (11761880_at) / RFU 11764098_at / Fold change /veh 11764098_at / RFU SAMD14 (11745864_x_at) / Fold change /veh SAMD14 (11745864_x_at) / RFU NPB (11741838_a_at) / Fold change /veh NPB (11741838_a_at) / RFU TMPRSS6 (11731388_a_at) / Fold change /veh TMPRSS6 (11731388_a_at) / RFU KRTAP10-2 (11738614_at) / Fold change /veh KRTAP10-2 (11738614_at) / RFU ARHGAP8 /// PRR5-ARHGAP8 (11727945_x_at) / Fold change /veh ARHGAP8 /// PRR5-ARHGAP8 (11727945_x_at) / RFU KRTAP5-7 /// NADSYN1 (11734609_at) / Fold change /veh KRTAP5-7 /// NADSYN1 (11734609_at) / RFU RASL12 (11751679_a_at) / Fold change /veh RASL12 (11751679_a_at) / RFU CDKN2B (11736163_a_at) / Fold change /veh CDKN2B (11736163_a_at) / RFU PRF1 (11729649_at) / Fold change /veh PRF1 (11729649_at) / RFU, ZNF638 /// ZNF638-IT1 / Fold change vs veh, ZNF638 /// ZNF638-IT1 / RFU, PANK3 / Fold change vs veh, PANK3 / RFU, SH3YL1 / Fold change vs veh, SH3YL1 / RFU, ZEB2 / Fold change vs veh, ZEB2 / RFU, NRIP1 / Fold change vs veh, NRIP1 / RFU, PTTG1IP / Fold change vs veh, PTTG1IP / RFU, CAPN2 / Fold change vs veh, CAPN2 / RFU, MED14 / Fold change vs veh, MED14 / RFU, SNORA58 / Fold change vs veh, SNORA58 / RFU, C1orf63 / Fold change vs veh, C1orf63 / RFU, LRRFIP1 / Fold change vs veh, LRRFIP1 / RFU, NDUFAF7 / Fold change vs veh, NDUFAF7 / RFU, SLC12A2 / Fold change vs veh, SLC12A2 / RFU, IBTK / Fold change vs veh, IBTK / RFU, ESF1 / Fold change vs veh, ESF1 / Fold change vs veh, TMEM50B / RFU, TAOK1 / Fold change vs veh, TAOK1 / RFU, ACBD3 / Fold change vs veh, ACBD3 / RFU, TMA16 / Fold change vs veh, TMA16 / RFU, RWDD3 / Fold change vs veh, RWDD3 / RFU, BCAT1 / Fold change vs veh, BCAT1 / RFU, EDEM3 / Fold change vs veh, EDEM3 / RFU, TMEM33 / Fold change vs veh, TMEM33 / RFU, WDR75 / Fold change vs veh, WDR75 / RFU, AHCTF1 / Fold change vs veh, AHCTF1 / RFU, TFRC / Fold change vs veh, TFRC / RFU, ZDHHC17 / Fold change vs veh, ZDHHC17 / RFU, NOM1 / Fold change vs veh, NOM1 / RFU, ARL8B / Fold change vs veh, ARL8B / RFU, ZBTB11 / Fold change vs veh, ZBTB11 / RFU, TAMM41 / Fold change vs veh, TAMM41 / RFU, KIAA1704 /// LOC100996395 / Fold change vs veh, KIAA1704 /// LOC100996395 / RFU, ING1 / Fold change vs veh, ING1 / RFU, TRMT61B / Fold change vs veh, TRMT61B / RFU, FUBP3 / Fold change vs veh, FUBP3 / RFU, TP53 / Fold change vs veh, TP53 / RFU, TNKS2 / Fold change vs veh, TNKS2 / RFU, ZFP14 / Fold change vs veh, ZFP14 / RFU, ACTR2 / Fold change vs veh, ACTR2 / RFU, PPP3R1 / Fold change vs veh, PPP3R1 / RFU, PIK3R1 / Fold change vs veh, PIK3R1 / RFU, HNRNPA1 / Fold change vs veh, HNRNPA1 / RFU, RNF170 / Fold change vs veh, RNF170 / RFU, ZNF28 / Fold change vs veh, ZNF28 / RFU, RNGTT / Fold change vs veh, RNGTT / RFU, OGT / Fold change vs veh, OGT / RFU, BRD1 / Fold change vs veh, BRD1 / RFU, MARS / Fold change vs veh, MARS / RFU, ZNF655 / Fold change vs veh, ZNF655 / RFU, FAHD1 / Fold change vs veh, FAHD1 / RFU, BDP1 / Fold change vs veh, BDP1 / RFU, LRRCC1 / Fold change vs veh, LRRCC1 / RFU, ARID1A / Fold change vs veh, ARID1A / RFU, ZNF146 / Fold change vs veh, ZNF146 / RFU, ZNF330 / Fold change vs veh, ZNF330 / RFU, GPN3 / Fold change vs veh, GPN3 / RFU, C9orf123 / Fold change vs veh, C9orf123 / RFU, N4BP2L2 / Fold change vs veh, N4BP2L2 / RFU, ARFIP1 / Fold change vs veh, ARFIP1 / RFU, FAM179B / Fold change vs veh, FAM179B / RFU, BCL10 / Fold change vs veh, BCL10 / RFU, UHRF1BP1L / Fold change vs veh, UHRF1BP1L / RFU, BET1 / Fold change vs veh, BET1 / RFU, CNOT2 / Fold change vs veh, CNOT2 / RFU, ZNF268 / Fold change vs veh, ZNF268 / Fold change vs veh, ZNF507 / RFU, DGCR2 / Fold change vs veh, DGCR2 / RFU, WDSUB1 / Fold change vs veh, WDSUB1 / Fold change vs veh, HSP90B1 /// MIR3652 / RFU, ADSS / Fold change vs veh, ADSS / RFU, GK / Fold change vs veh, GK / RFU, ZNF148 / Fold change vs veh, ZNF148 / RFU, TAF9 / Fold change vs veh, TAF9 / RFU, SLC1A5 / Fold change vs veh, SLC1A5 / RFU, SLMO2 / Fold change vs veh, SLMO2 / RFU, ABCC4 / Fold change vs veh, ABCC4 / RFU, LOC101060439 /// RAP1B / Fold change vs veh, LOC101060439 /// RAP1B / RFU, RFX7 / Fold change vs veh, RFX7 / RFU, GTPBP10 / Fold change vs veh, GTPBP10 / RFU, CNEP1R1 / Fold change vs veh, CNEP1R1 / RFU, BIVM-ERCC5 /// ERCC5 / Fold change vs veh, BIVM-ERCC5 /// ERCC5 / RFU, ILF3 / Fold change vs veh, ILF3 / RFU 11762660_at / Fold change /veh 11762660_at / RFU VCAN (11757783_s_at) / Fold change /veh VCAN (11757783_s_at) / RFU DDX43 (11728927_at) / Fold change /veh DDX43 (11728927_at) / RFU KRT8 (11758188_x_at) / Fold change /veh KRT8 (11758188_x_at) / RFU NKD1 (11759106_at) / Fold change /veh NKD1 (11759106_at) / RFU SRD5A1 (11742802_a_at) / Fold change /veh SRD5A1 (11742802_a_at) / RFU TPSAB1 /// TPSB2 (11721975_s_at) / Fold change /veh TPSAB1 /// TPSB2 (11721975_s_at) / RFU GSTM3 (11746129_a_at) / Fold change /veh GSTM3 (11746129_a_at) / RFU IL23R (11737362_x_at) / Fold change /veh IL23R (11737362_x_at) / RFU TMEM51 (11727254_a_at) / Fold change /veh TMEM51 (11727254_a_at) / RFU PIWIL2 (11732686_x_at) / Fold change /veh PIWIL2 (11732686_x_at) / RFU ORM1 (11744905_x_at) / Fold change /veh ORM1 (11744905_x_at) / RFU CCDC152 (11743942_at) / Fold change /veh CCDC152 (11743942_at) / RFU ECM1 (11717891_a_at) / Fold change /veh ECM1 (11717891_a_at) / RFU IL23R (11748794_a_at) / Fold change /veh IL23R (11748794_a_at) / RFU TNFAIP8L3 (11732012_x_at) / Fold change /veh TNFAIP8L3 (11732012_x_at) / RFU MBOAT4 (11741988_at) / Fold change /veh MBOAT4 (11741988_at) / RFU 11764193_at / Fold change /veh 11764193_at / RFU TMEM53 (11763286_at) / Fold change /veh TMEM53 (11763286_at) / RFU MAGEB2 (11727129_at) / Fold change /veh MAGEB2 (11727129_at) / RFU TMEM200A (11744735_a_at) / Fold change /veh TMEM200A (11744735_a_at) / RFU CCDC152 (11751479_a_at) / Fold change /veh CCDC152 (11751479_a_at) / RFU FAM211A (11726209_a_at) / Fold change /veh FAM211A (11726209_a_at) / RFU RGS16 (11746705_a_at) / Fold change /veh RGS16 (11746705_a_at) / RFU VCAN (11755009_s_at) / Fold change /veh VCAN (11755009_s_at) / RFU RHOB (11743442_s_at) / Fold change /veh RHOB (11743442_s_at) / RFU RGS16 (11720943_a_at) / Fold change /veh RGS16 (11720943_a_at) / RFU RGS16 (11720944_at) / Fold change /veh RGS16 (11720944_at) / RFU, VPS4B / Fold change vs veh, VPS4B / RFU, CREB1 / Fold change vs veh, CREB1 / RFU, DNAJC13 / Fold change vs veh, DNAJC13 / RFU, GNAQ / Fold change vs veh, GNAQ / RFU, CDK5R1 / Fold change vs veh, CDK5R1 / RFU, ZRANB3 / Fold change vs veh, ZRANB3 / RFU, CUL4A / Fold change vs veh, CUL4A / RFU, CCNY / Fold change vs veh, CCNY / RFU, UFL1 / Fold change vs veh, UFL1 / RFU, COG3 / Fold change vs veh, COG3 / RFU, DIAPH2 / Fold change vs veh, DIAPH2 / RFU, SKA2 / Fold change vs veh, SKA2 / RFU, AFF3 / Fold change vs veh, AFF3 / RFU, LMF1 / Fold change vs veh, LMF1 / RFU, IPO11 / Fold change vs veh, IPO11 / RFU, DFFB / Fold change vs veh, DFFB / RFU, FOXP1 / Fold change vs veh, FOXP1 / RFU, CARD8 / Fold change vs veh, CARD8 / RFU, STRN3 / Fold change vs veh, STRN3 / RFU, ADK / Fold change vs veh, ADK / RFU, RASSF2 / Fold change vs veh, RASSF2 / RFU, WIPF1 / Fold change vs veh, WIPF1 / RFU, LARP1B / Fold change vs veh, LARP1B / RFU, RASA1 / Fold change vs veh, RASA1 / RFU, RB1 / Fold change vs veh, RB1 / RFU, PPFIA1 / Fold change vs veh, PPFIA1 / RFU, MAT2A / Fold change vs veh, MAT2A / RFU, CCT5 / Fold change vs veh, CCT5 / RFU, WDR92 / Fold change vs veh, WDR92 / RFU, CUX1 / Fold change vs veh, CUX1 / RFU, TTC7A / Fold change vs veh, TTC7A / RFU, TMEM135 / Fold change vs veh, TMEM135 / RFU, DEPTOR / Fold change vs veh, DEPTOR / RFU, CPM / Fold change vs veh, CPM / RFU, DNAJB6 / Fold change vs veh, DNAJB6 / RFU, CACNA2D3 / Fold change vs veh, CACNA2D3 / RFU, DTX4 / Fold change vs veh, DTX4 / RFU, TFCP2 / Fold change vs veh, TFCP2 / RFU, GMCL1 /// GMCL1P1 / Fold change vs veh, GMCL1 /// GMCL1P1 / RFU, AEBP2 / Fold change vs veh, AEBP2 / RFU, SNHG1 /// SNORD22 /// SNORD25 /// SNORD26 /// SNORD27 /// SNORD28 /// SNORD29 /// SNORD31 / Fold change vs veh, SNHG1 /// SNORD22 /// SNORD25 /// SNORD26 /// SNORD27 /// SNORD28 /// SNORD29 /// SNORD31 / Fold change (Aza/veh), C12orf56 (ProbeSet 11735607_a_at) / Fold change (ACY-1035/veh), C12orf56 (ProbeSet 11735607_a_at) / Fold change (Aza/veh), FGFR1OP (ProbeSet 11751329_s_at) / Fold change (ACY-1035/veh), FGFR1OP (ProbeSet 11751329_s_at) / Fold change (Aza/veh), VPS36 (ProbeSet 11739960_a_at) / Fold change (ACY-1035/veh), VPS36 (ProbeSet 11739960_a_at) / RFU SYPL1 (11715823_x_at) / Fold change /veh SYPL1 (11715823_x_at) / RFU IGFBP7 (11715501_s_at) / Fold change /veh IGFBP7 (11715501_s_at) / RFU REEP3 (11722064_at) / Fold change /veh REEP3 (11722064_at) / RFU IGLL1 (11728026_x_at) / Fold change /veh IGLL1 (11728026_x_at): dose or concentration left out as unconfirmed. The following applies: ProbeSet 11753623_s_at; LIST D.

Molecules are shown by their SMILES.

As to `Nc1ncn([C@@H]2O[C@H](CO)[C@@H](O)[C@H]2O)c(=O)n1` [azacitidine], the “RFU, LOC101060439 /// RAP1B” value came out at 283.36 RFU.
